This is an account of results in patent publication US5635477A, “Cyclic compounds useful as inhibitors of platelet glycoprotein IIB/IIIA” (The DuPont Merck Pharmaceutical Company, priority 1995, dated 1997).

The term pIC50 denotes the IC50 on a negative log10 scale, so that one unit is a factor of ten.

pIC50: −log10 of the molar value. Like-named read-outs stand apart in the source and are kept apart here. Starred links: 1 amine or outer side, 2 acyl side, 3 side chain; linkers in the order of their positions; H or OH if unused. Non-standard residues stand in square brackets, D forms with d. Residues, ends and D or L forms follow the SMILES beside them. NMeOrn(Me) = CNCCC[C@H](NC)C(=O)O; NMeR = CN[C@@H](CCCNC(=N)N)C(=O)O; X8 = O=C(c1cc(CN[*:1])ccc1I)[*:2]; dPhg = N[C@@H](C(=O)O)c1ccccc1; dNle = CCCC[C@@H](N)C(=O)O; 3Amb = NCc1cccc(C(=O)O)c1; dAbu = CC[C@@H](N)C(=O)O; βAla = NCCC(=O)O; Sar = CNCC(=O)O Some results are limits rather than exact numbers.

Experiment [1] addresses agonist-induced platelet aggregation (Homo sapiens, UniProt P05106+P08514). Nature of the experiment: Platelet Aggregation Assay. In kind it is cell-based. The note with it: human PRP; agonist-induced aggregation. The procedure:
Blood was collected into 10 ml citrated Vacutainer tubes.

Experiment [2] concerns already formed platelet-rich clot. The note with it: for lytic effect on already formed platelet-rich clot: varying concentrations. The method, then: Thrombolytic Assay: Venous blood was obtained from the arm of a healthy human donor who was drug-free and aspirin free for at least two weeks prior to blood collection, and placed into 10 ml citrated Vacutainer tubes. The blood was centrifuged for 15 minutes at 1500 ×g at room temperature, and platelet rich plasma (PRP) was removed. To the PRP was then added 1×10^- 3M of the agonist ADP, epinephrine, collagen, arachidonate, serotonin or thrombin, or a mixture thereof, and the PRP incubated for 30 minutes. The PRP was centrifuged for 12 minutes at 2500×g at room temperature. The supernatant was then poured off, and the platelets remaining in the test tube were resuspended in platelet poor plasma (PPP), which served as a plasminogen source. The suspension was then assayed on a Coulter Counter (Coulter Electronics, Inc., Hialeah, Fla.), to determine the platelet count at the zero time point. After obtaining the zero time point, test compounds were added at various concentrations. Test samples were taken at various time points and the platelets were counted using the Coulter Counter. To determine the percent of lysis, the platelet count at a time point subsequent to the addition of the test compound was subtracted from the platelet count at the zero time point, and the resulting number divided by the platelet count at the zero time point. […] For the IC50 evaluation, the test compounds were added at various concentrations, and the percentage of lysis caused by the test compounds was calculated.
Compounds A and B were also tested at varying concentrations using the thrombolytic assay described above (FIG. Ib). […] The clot was formed by incubating platelets with a mixture of agonists (TEAC mixture), which consists of thrombin (0.01 U/ml), epinephrine (250 uM), ADP (250 uM), and collagen (10 ug.ml), for 30 minutes. As a comparison, a linear peptide of sequence arginine-glycine-aspartic acid-serine (RGDS) was also tested in the thrombolytic assay.

Experiment [3] has as its system platelet granular secretion. The note with it: cited from earlier work.

agonist-induced platelet aggregation, sequence (P08514 32-1039): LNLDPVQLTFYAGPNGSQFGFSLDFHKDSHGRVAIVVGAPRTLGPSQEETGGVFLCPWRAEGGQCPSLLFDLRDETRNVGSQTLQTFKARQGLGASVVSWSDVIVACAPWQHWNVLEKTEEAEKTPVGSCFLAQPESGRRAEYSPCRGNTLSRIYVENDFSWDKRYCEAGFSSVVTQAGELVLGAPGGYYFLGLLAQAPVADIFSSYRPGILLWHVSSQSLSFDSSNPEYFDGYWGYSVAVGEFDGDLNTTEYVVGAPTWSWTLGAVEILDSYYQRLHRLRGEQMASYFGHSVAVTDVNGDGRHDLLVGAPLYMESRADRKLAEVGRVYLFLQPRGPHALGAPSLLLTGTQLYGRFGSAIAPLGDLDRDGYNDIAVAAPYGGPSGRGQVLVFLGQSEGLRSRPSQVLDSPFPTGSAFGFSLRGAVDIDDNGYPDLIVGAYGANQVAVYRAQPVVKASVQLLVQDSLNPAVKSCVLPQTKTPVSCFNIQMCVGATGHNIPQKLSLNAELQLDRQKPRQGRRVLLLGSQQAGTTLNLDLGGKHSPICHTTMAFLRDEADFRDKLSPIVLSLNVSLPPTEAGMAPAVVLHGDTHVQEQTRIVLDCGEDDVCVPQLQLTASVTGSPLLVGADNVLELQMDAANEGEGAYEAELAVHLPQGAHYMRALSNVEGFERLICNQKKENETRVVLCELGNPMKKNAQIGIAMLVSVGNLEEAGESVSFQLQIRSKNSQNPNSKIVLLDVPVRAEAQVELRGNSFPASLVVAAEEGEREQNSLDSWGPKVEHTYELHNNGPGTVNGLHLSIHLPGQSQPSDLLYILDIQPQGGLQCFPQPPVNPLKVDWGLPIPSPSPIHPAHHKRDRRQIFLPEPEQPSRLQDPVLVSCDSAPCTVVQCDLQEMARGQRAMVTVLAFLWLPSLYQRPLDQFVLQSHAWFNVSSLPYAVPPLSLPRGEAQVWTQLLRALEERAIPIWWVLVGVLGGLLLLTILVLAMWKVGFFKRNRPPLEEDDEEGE
agonist-induced platelet aggregation, sequence (P05106 27-788): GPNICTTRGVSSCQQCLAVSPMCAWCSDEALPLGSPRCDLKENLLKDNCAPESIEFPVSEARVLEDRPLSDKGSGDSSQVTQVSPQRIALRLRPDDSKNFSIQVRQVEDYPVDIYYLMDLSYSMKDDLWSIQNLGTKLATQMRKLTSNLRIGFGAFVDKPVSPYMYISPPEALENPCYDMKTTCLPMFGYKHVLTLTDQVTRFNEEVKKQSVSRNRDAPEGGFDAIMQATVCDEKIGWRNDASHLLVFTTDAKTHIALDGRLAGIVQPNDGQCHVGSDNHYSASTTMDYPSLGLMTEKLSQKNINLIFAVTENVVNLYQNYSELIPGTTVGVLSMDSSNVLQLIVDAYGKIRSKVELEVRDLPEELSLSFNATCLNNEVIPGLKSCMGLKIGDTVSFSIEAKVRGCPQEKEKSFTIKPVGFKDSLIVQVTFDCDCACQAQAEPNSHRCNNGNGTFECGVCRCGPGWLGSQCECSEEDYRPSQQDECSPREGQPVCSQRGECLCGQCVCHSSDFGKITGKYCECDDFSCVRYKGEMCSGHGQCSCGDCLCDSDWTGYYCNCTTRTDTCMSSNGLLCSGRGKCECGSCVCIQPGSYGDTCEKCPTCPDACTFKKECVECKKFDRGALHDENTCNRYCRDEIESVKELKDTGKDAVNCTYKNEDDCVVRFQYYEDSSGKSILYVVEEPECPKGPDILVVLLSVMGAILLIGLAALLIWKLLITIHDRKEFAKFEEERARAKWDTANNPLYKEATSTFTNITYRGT

Consider `CC(C)[C@H]1NC(=O)c2cccc(c2)CNC(=O)[C@H](CC(=O)O)NC(=O)CNC(=O)[C@H](CCCNC(=N)N)N(C)C1=O` [Example 4, cyclo-(D-Val-NMeArg-Gly-Asp-Mamb)], for which the pIC50 in experiment [1] is greater than 6.00; in experiment [2], 6.00 to 6.30. Besides, the “thrombolytic effect in combination with tPA, urokinase or streptokinase” value in experiment [2] (in vitro, pre-formed platelet-rich clot) was “significantly better than the additive effects of both agents”. Besides, the “lytic effect on already formed platelet-rich clot” value was “significant lyric efficacy of pre-formed platelet rich-clot” in experiment [2] (listed as B) and “significant lytic effect on the clot” in experiment [2] (listed as Compound B).
The molecule `CC[C@H]1NC(=O)c2cccc(c2)CNC(=O)[C@H](CC(=O)O)NC(=O)CNC(=O)[C@H](CCCNC(=N)N)NC1=O` [Example 34, cyclo-(D-Abu-Arg-Gly-Asp-Mamb)] (cyclo(RGD[3Amb][dAbu])) had a pIC50 in experiment [1] of 5.00 to 6.00.
On the same count and under the same terms, the value for `CC(C)[C@H]1NC(=O)c2ccc(I)c(c2)CNC(=O)[C@H](CC(=O)O)NC(=O)CNC(=O)[C@H](CCCNC(=N)N)N(C)C1=O` [Example 94, cyclo-(D-Val-NMeArg-Gly-Asp-iodo-Mamb)] was greater than 6.00; that for `CC(C)[C@H]1NC(=O)c2ccc3c(c2)C(CCC3)NC(=O)[C@H](CC(=O)O)NC(=O)CNC(=O)[C@H](CCCNC(=N)N)N(C)C1=O` (single isomer, unassigned) [Example 89b, cyclo-(D-Val-NMeArg-Gly-Asp-aminotetralincarboxylic acid)] was greater than 6.00.
As to `CC(C)C[C@H]1NC(=O)c2cccc(c2)CNC(=O)[C@H](CC(=O)O)NC(=O)CNC(=O)[C@H](CCCNC(=N)N)NC1=O` [Example 33, cyclo-(D-Leu-Arg-Gly-Asp-Mamb)] (cyclo(RGD[3Amb][dL])), the negative logarithm of the IC50 (pIC50) in experiment [1] is 5.00 to 6.00.
With `CC(=O)Oc1ccccc1C(=O)O` [aspirin, acetylsalicyclic acid, reference compound], in experiment [3], the “effect on platelet granular secretion (PAI-1, serotonin)” value is recorded as “inhibit platelet granular secretion”.
In experiment [1], `CC(C)[C@H]1NC(=O)c2cccc(c2)CNC(=O)[C@H](CC(=O)O)NC(=O)CCNC(=O)[C@H](CCCNC(=N)N)N(C)C1=O` [Example 54, cyclo-(D-Val-NMeArg-b-Ala-Asp-Mamb)] (cyclo([3Amb][dV][NMeR][βAla]D)) had a negative-log IC50 (pIC50) of 5.00 to 6.00.
Turning to `CC(C)[C@H]1NC(=O)c2ccc3cccc(c3c2)CNC(=O)[C@H](CC(=O)O)NC(=O)CNC(=O)[C@H](CCCNC(=N)N)N(C)C1=O` [Example 89c, cyclo-(D-Val-NMeArg-Gly-Asp-aminomethylnaphthoic acid)], in experiment [1], the negative logarithm of the IC50 (pIC50) is 5.00 to 6.00.
`CCCC[C@H]1NC(=O)c2cccc(c2)CNC(=O)[C@H](CC(=O)O)NC(=O)CNC(=O)[C@H](CCCNC(=N)N)N(C)C1=O` [Example 7, cyclo-(D-Nle-NMeArg-Gly-Asp-Mamb)] (cyclo([NMeR]GD[3Amb][dNle])) showed a negative logarithm of the IC50 (pIC50) in experiment [1] greater than 6.00.
Still for that read-out and setting: as for `N=C(N)NCCC[C@@H]1NC(=O)[C@@H](CO)NC(=O)c2cccc(c2)CNC(=O)[C@H](CC(=O)O)NC(=O)CNC1=O` [Example 35, cyclo-(D-Ser-Arg-Gly-Asp-Mamb)] (cyclo(RGD[3Amb][dS])), the figure is 5.00 to 6.00; as for `CC(C)[C@H]1NC(=O)c2cccc(c2)CNC(=O)[C@H](CC(=O)O)N(C)C(=O)CNC(=O)[C@H](CCCNC(=N)N)N(C)C1=O` [Example 64b, cyclo-(D-Val-NMeArg-Gly-NMeAsp-Mamb)], 5.00 to 6.00.
In the case of hirudin, in experiment [3], the “effect on platelet granular secretion (PAI-1, serotonin)” value was “inhibit platelet granular secretion”.
With `CN1C(=O)[C@@H](c2ccccc2)NC(=O)c2cccc(c2)CNC(=O)[C@H](CC(=O)O)NC(=O)CNC(=O)[C@@H]1CCCNC(=N)N` [Example 11, cyclo-(D-Phg-NMeArg-Gly-Asp-Mamb)] (cyclo([NMeR]GD[3Amb][dPhg])), the pIC50 in experiment [1] was greater than 6.00.
In experiment [1], `CC(C)[C@H]1NC(=O)c2ccc(Cl)c(c2)CNC(=O)[C@H](CC(=O)O)NC(=O)CNC(=O)[C@H](CCCNC(=N)N)N(C)C1=O` [Example 93, cyclo-(D-Val-NMeArg-Gly-Asp-3-aminomethyl-4-chlorobenzoic acid)] gave a pIC50 greater than 6.00.
Regarding `CC[C@H]1NC(=O)c2cc(ccc2I)CNC(=O)[C@H](CC(=O)O)NC(=O)CNC(=O)[C@H](CCCNC(=N)N)N(C)C1=O` [Example 100b, cyclo-(D-Abu-NMeArg-Gly-Asp-3-aminomethyl-6-iodobenzoic acid)] (cyclo([NMeR]GD[X8][dAbu])), the negative logarithm of the IC50 (pIC50) in experiment [1] is greater than 6.00.
Same read-out and setting: as for `CC[C@H]1NC(=O)c2cccc(c2)CNC(=O)[C@H](CC(=O)O)NC(=O)CNC(=O)[C@H](CCCNC)N(C)C1=O` [Example 89e, cyclo-(D-Abu-di-NMeOrn-Gly-Asp-Mamb)] (cyclo([dAbu][NMeOrn(Me)]GD[3Amb])), the figure is 5.00 to 6.00; as for `CN1CC(=O)N(C)[C@@H](CCCNC(=N)N)C(=O)NCC(=O)N[C@@H](CC(=O)O)C(=O)NCc2cccc(c2)C1=O` [Example 18, cyclo-(NMeGly-NMeArg-Gly-Asp-Mamb)] (cyclo([NMeR]GD[3Amb][Sar])), greater than 6.00; as for `N=C(N)NCCC[C@@H]1NC(=O)[C@H](Cc2ccccc2)NC(=O)c2cccc(c2)CNC(=O)[C@H](CC(=O)O)NC(=O)CNC1=O` [Example 37, cyclo-(Phe-Arg-Gly-Asp-Mamb)] (cyclo(RGD[3Amb]F)), 4.00 to 5.00.
